Laboratory results: PubChem BioAssay (NCI)
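The compound was tested at five concentrations on cells cultured in 96-well plates, with a 48-hour exposure period. The concentration for 50% growth inhibition is given as GI50. TGI marks complete inhibition of growth.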

Columns and labels:
Test in all cases: DTP human tumour cell line panel, 48 h
[1] = test system: ACHN renal
[2] = test system: COLO 205 colon
[3] = test system: HCT-116 colon
[4] = test system: IGROV1 ovarian
[5] = test system: MALME-3M melanoma
[6] = test system: MCF7 breast
[7] = test system: MDA-MB-435
[8] = test system: NCI/ADR-RES ovarian
[9] = test system: SK-MEL-2 melanoma
[10] = test system: UACC-257 melanoma
[11] = test system: UACC-62 melanoma
[12] = test system: PC-3 prostate

Compound | TGI [1] | TGI [2] | TGI [3] | TGI [4] | TGI [5] | TGI [6] | TGI [7] | TGI [8] | TGI [9] | TGI [10] | TGI [11] | GI50 [4] | TGI [12] | GI50 [1] | GI50 [5] | GI50 [6] | GI50 [7] | GI50 [8] | GI50 [10]
CN(C)CCCSc1nc2ccccc2[nH]1 | > 100 µM | > 100 µM | > 100 µM | > 100 µM | > 100 µM | > 100 µM | > 100 µM | > 100 µM | > 100 µM | > 100 µM | > 100 µM | – | – | – | – | – | – | – | –
CCOC(=O)c1cnc2oc3ccc(O)cc3c2c1C | > 100 µM | > 100 µM | > 100 µM | > 100 µM | > 100 µM | > 100 µM | > 100 µM | > 100 µM | > 100 µM | > 100 µM | > 100 µM | 86.2 µM | > 100 µM | – | – | – | – | – | –
COc1ccc2[nH]cc(CCNC(=O)[C@H](Cc3ccccc3)NC(=O)[C@@H](NCC(F)(F)F)C(C)C)c2c1 | 67.7 µM | 32.3 µM | 32 µM | 51.3 µM | 51.9 µM | 36.5 µM | 34.8 µM | 41 µM | 38.3 µM | 37.8 µM | 36.2 µM | – | 40.9 µM | – | – | – | – | – | –
CCCCCCCCCCCCCCCCCCOc1ccccc1CC(=O)OCC[N+]1(C)CCCCC1 | 25.8 µM | – | – | – | 4.86 µM | 4.97 µM | 3.2 µM | 46.6 µM | – | 7.91 µM | – | – | – | 5.01 µM | 1.97 µM | 2.07 µM | 1.7 µM | 14.9 µM | 2.79 µM
CN(CCCCCl)P(=O)(OCc1ccc([N+](=O)[O-])o1)OC[C@H]1O[C@@H](n2cc(F)c(=O)[nH]c2=O)C[C@@H]1O (stereo not given in full) | > 100 µM | 16.5 µM | > 43.8 µM | > 63.5 µM | 36.1 µM | 4.45 µM | 39 µM | 36.3 µM | 36.1 µM | > 68 µM | 6.48 µM | – | > 56.1 µM | – | – | – | – | – | –
CN1CCOC(c2ccc(Cl)cc2)O1 (stereo not given) | > 100 µM | > 100 µM | – | > 100 µM | > 100 µM | > 100 µM | > 100 µM | > 100 µM | > 100 µM | > 100 µM | > 100 µM | – | > 100 µM | – | – | – | – | – | –
CC(CCN)(CCN)[N+](=O)[O-] | > 100 µM | > 100 µM | > 100 µM | > 100 µM | > 100 µM | > 100 µM | > 100 µM | > 100 µM | > 100 µM | > 100 µM | > 100 µM | – | > 100 µM | – | – | – | – | – | –
COc1cc2c(c(O)c1OC)-c1c(cc(OC)c(OC)c1OC)CC(C)C(C)C2 (stereo not given) | > 100 µM | > 100 µM | > 100 µM | > 100 µM | > 100 µM | > 100 µM | > 100 µM | – | > 100 µM | > 100 µM | > 100 µM | – | > 100 µM | – | – | – | – | – | –
C1=NCCN2CCN(CCN=Cc3ccc(cc3)OCc3cccc(n3)COc3ccc1cc3)CC2 | > 50 µM | > 50 µM | > 50 µM | > 50 µM | > 50 µM | > 50 µM | > 50 µM | > 50 µM | > 50 µM | > 50 µM | > 50 µM | – | > 50 µM | – | – | – | – | – | –
C=C1c2ccccc2C(=O)c2c1c1c(C(=O)OC)c(O)ccc1n2Cc1ccccc1 | 1.74 µM | 3.72 µM | 1.43 µM | 0.799 µM | 1.18 µM | 0.763 µM | 0.885 µM | 0.723 µM | 2.39 µM | 5.98 µM | 1.12 µM | – | 1.56 µM | – | – | – | – | – | –
O=C(O)c1cc([N+](=O)[O-])cc2c(=O)c3cnccc3[nH]c12 | – | > 100 µM | > 100 µM | > 100 µM | > 100 µM | > 100 µM | > 100 µM | > 100 µM | > 100 µM | – | > 100 µM | – | > 100 µM | – | – | – | – | – | –
COC1=C(OC)C(=O)C(Cc2c(Cl)nc3sc(C)cn23)=C(C)C1=O | 40 µM | 34.7 µM | 55.9 µM | 35.5 µM | 26.5 µM | 63.5 µM | 35.3 µM | 38.1 µM | 76.9 µM | 22.8 µM | 25.6 µM | – | 34.9 µM | – | – | – | – | – | –
O=C([O-])C[n+]1ccccc1 | > 100 µM | > 100 µM | > 100 µM | > 100 µM | > 100 µM | > 100 µM | > 100 µM | > 100 µM | > 100 µM | > 100 µM | > 100 µM | – | > 100 µM | – | – | – | – | – | –
Cn1c2ccccc2n2c(N=O)c(-c3ccccc3)nc12 | > 100 µM | 22.6 µM | > 100 µM | > 100 µM | > 100 µM | > 100 µM | > 100 µM | > 100 µM | > 100 µM | > 100 µM | > 100 µM | – | > 100 µM | – | – | – | – | – | –
Nc1ncnc2c1ncn2C=C=CCO | – | > 100 µM | > 100 µM | – | > 100 µM | > 100 µM | > 100 µM | > 100 µM | > 100 µM | > 100 µM | – | – | > 100 µM | – | – | – | – | – | –
C[C@]12C=CC(=O)C=C1CC[C@@H]1[C@@H]2CC[C@]2(C)OC(=O)CC[C@@H]12 | > 500 µM | > 500 µM | > 482 µM | > 475 µM | > 500 µM | > 500 µM | > 500 µM | > 500 µM | > 488 µM | > 500 µM | 500 µM | – | > 500 µM | – | – | – | – | – | –
Cc1ccc(S(=O)(=O)n2cc(-c3cc(C(F)(F)F)ccn3)c3cc(Br)ccc32)cc1 | 24.3 µM | > 100 µM | 53 µM | – | 52.7 µM | 26 µM | > 100 µM | > 100 µM | 10.8 µM | > 100 µM | 33.3 µM | – | 41.7 µM | – | – | – | – | – | –
CN1CCc2[nH]c3ccccc3c2C1 | – | > 100 µM | > 100 µM | > 100 µM | > 100 µM | > 100 µM | – | > 100 µM | > 100 µM | > 100 µM | > 100 µM | – | – | – | – | – | – | – | –
CCOc1ccc(NC(=O)C(=O)CC(=O)c2sc(NNC(C)=O)nc2C)cc1 | > 100 µM | > 100 µM | > 100 µM | > 100 µM | – | – | – | – | > 100 µM | > 100 µM | > 100 µM | – | – | – | – | – | – | – | –
O=C(Nc1ccc(Cl)cc1)c1cc2cc(N=Nc3ccccc3Cl)ccc2oc1=O | > 100 µM | > 100 µM | 23.3 µM | 48.1 µM | 48.3 µM | – | – | – | 47 µM | 68.2 µM | 26.6 µM | – | – | – | – | – | – | – | –
